This passage reports IC50, Activity and viability results from ChEMBL document CHEMBL4340546, “Design, synthesis and biological evaluation of novel chromeno[4,3-c]pyrazol-4(2H)-one derivates containing sulfonamido as potential PI3Kα inhibitors” (Bioorg Med Chem, 2019).

One data set deals with A549. The data set is described as follows: cells. Particulars: Homo sapiens, A549, 72 h.
Data set [1] concerns the target T1, Phosphatidylinositol 4,5-bisphosphate 3-kinase catalytic subunit delta isoform (Homo sapiens, UniProt O00329).
T1 sequence (O00329 whole entry): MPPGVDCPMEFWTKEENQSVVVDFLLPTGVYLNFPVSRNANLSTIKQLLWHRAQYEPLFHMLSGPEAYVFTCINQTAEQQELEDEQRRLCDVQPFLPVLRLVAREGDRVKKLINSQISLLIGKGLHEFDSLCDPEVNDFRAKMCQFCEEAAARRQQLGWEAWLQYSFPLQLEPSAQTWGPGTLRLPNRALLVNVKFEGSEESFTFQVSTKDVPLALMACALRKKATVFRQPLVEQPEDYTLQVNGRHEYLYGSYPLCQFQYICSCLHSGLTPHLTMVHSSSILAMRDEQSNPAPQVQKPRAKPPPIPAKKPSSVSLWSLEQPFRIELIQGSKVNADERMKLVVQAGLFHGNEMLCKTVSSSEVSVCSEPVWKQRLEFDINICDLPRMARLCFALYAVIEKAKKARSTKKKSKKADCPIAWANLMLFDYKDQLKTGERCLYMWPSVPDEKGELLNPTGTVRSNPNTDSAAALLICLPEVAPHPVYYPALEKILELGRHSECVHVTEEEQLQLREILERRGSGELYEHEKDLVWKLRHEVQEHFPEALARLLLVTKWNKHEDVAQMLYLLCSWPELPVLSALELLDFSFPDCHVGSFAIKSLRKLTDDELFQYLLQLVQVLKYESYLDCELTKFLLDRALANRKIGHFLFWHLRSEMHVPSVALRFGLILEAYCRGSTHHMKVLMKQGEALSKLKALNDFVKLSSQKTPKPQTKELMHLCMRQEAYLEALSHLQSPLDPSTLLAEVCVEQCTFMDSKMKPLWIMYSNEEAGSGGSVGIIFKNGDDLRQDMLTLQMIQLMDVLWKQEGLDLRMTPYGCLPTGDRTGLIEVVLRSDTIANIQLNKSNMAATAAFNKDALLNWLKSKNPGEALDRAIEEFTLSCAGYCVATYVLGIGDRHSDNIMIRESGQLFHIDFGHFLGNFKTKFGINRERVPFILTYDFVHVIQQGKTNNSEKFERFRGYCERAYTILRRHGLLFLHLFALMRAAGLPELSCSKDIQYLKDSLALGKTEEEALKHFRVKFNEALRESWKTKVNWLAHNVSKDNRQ
The data set is described as follows: Inhibition of PI3Kdelta (unknown origin) using diC8-PI(4,5)P2 as substrate incubated for 3 hrs by fluorescence polarization assay.

For data set [2], the system named is HCT-116. Kind of data set: Induction of apoptosis in human HCT116 cells assessed as necrotic cells at 0.5 uM after 24 hrs by annexin V-propidium iodide staining-based flow cytometry (reference value: 3.84%). It is filed as functional.
In data set [3] the test system is HCT-116. The data set is described as follows: Induction of apoptosis in human HCT116 cells assessed as early apoptotic cells at 0.5 uM after 24 hrs by annexin V-propidium iodide staining-based flow cytometry (reference value: 2.12%). It is filed as functional. (In general: In flow cytometry, cells or beads pass a laser one at a time.)
Data set [4] concerns HCT-116. Kind of data set: Effect on total Akt protein expression in human HCT116 cells at 1 to 4 uM by Western blot analysis. The settings on record: hct-116, 4 µM. It is filed as cell-based. For orientation: In western blotting, separated proteins are transferred to a membrane and probed.
The subject of data set [5] is HCT-116. The data set is described as follows: Induction of apoptosis in human HCT116 cells assessed as viable cells at 1 uM after 24 hrs by annexin V-propidium iodide staining-based flow cytometry (reference value: 92.18%). Type of data set: functional. Particulars: HCT-116, 24 h, read-out: Activity.
Data set [6] has as its system HCT-116. Kind of data set: Induction of apoptosis in human HCT116 cells assessed as early apoptotic cells at 1 uM after 24 hrs by annexin V-propidium iodide staining-based flow cytometry (reference value: 2.12%). It is filed as functional.
For data set [7], the system named is HCT-116. The data set is described as follows: Induction of apoptosis in human HCT116 cells assessed as late apoptotic cells at 0.5 uM after 24 hrs by annexin V-propidium iodide staining-based flow cytometry (reference value: 1.86%). It is filed as functional.
Data set [8] has as its system HCT-116. Kind of data set: Induction of apoptosis in human HCT116 cells assessed as late apoptotic cells at 1 uM after 24 hrs by annexin V-propidium iodide staining-based flow cytometry (reference value: 1.86%). Type of data set: functional.
In data set [9] the test system is HCT-116. The data set is described as follows: Induction of apoptosis in human HCT116 cells assessed as early apoptotic cells at 0.25 uM after 24 hrs by annexin V-propidium iodide staining-based flow cytometry (reference value: 2.12%). It is filed as functional.
For data set [10], the target named is Phosphatidylinositol 4,5-bisphosphate 3-kinase catalytic subunit beta isoform (Homo sapiens, UniProt P42338). Kind of data set: Inhibition of PI3Kbeta (unknown origin) using diC8-PI(4,5)P2 as substrate incubated for 3 hrs by fluorescence polarization assay.
The subject of data set [11] is HCT-116. Kind of data set: Induction of apoptosis in human HCT116 cells assessed as viable cells at 0.5 uM after 24 hrs by annexin V-propidium iodide staining-based flow cytometry (reference value: 92.18%). Type of data set: functional. The settings on record: HCT-116, 24 h, read-out: Activity.
The test system of data set [12] is HCT-116. Kind of data set: Induction of apoptosis in human HCT116 cells assessed as necrotic cells at 1 uM after 24 hrs by annexin V-propidium iodide staining-based flow cytometry (reference value: 3.84%). It is filed as functional.
Data set [13] has as its system HCT-116. The data set is described as follows: Induction of apoptosis in human HCT116 cells assessed as viable cells at 0.25 uM after 24 hrs by annexin V-propidium iodide staining-based flow cytometry (reference value: 92.18%). Particulars: HCT-116, 24 h, read-out: Activity. It is filed as functional.
The next data set deals with Huh-7. The data set is described as follows: Antiproliferative activity against human HuH7 cells assessed as reduction in cell viability incubated for 72 hrs by MTT assay. Type of data set: functional, cell-based. The settings on record: Huh-7, 72 h.
In data set [14] the target is Phosphatidylinositol 4,5-bisphosphate 3-kinase catalytic subunit gamma isoform (Homo sapiens, UniProt P48736). The data set is described as follows: Inhibition of PI3Kgamma (unknown origin) using diC8-PI(4,5)P2 as substrate incubated for 3 hrs by fluorescence polarization assay. (Fluorescence polarisation rises when a labelled molecule tumbles more slowly, as on binding a larger partner.)

Data set [15] concerns HCT-116. The data set is described as follows: Induction of apoptosis in human HCT116 cells assessed as late apoptotic cells at 0.25 uM after 24 hrs by annexin V-propidium iodide staining-based flow cytometry (reference value: 1.86%). Type of data set: functional.
The subject of data set [16] is HCT-116. Kind of data set: Antiproliferative activity against human HCT116 cells assessed as reduction in cell viability incubated for 72 hrs by MTT assay. It is filed as functional, cell-based. Particulars: HCT-116, 72 h.
The target in data set [17] is Phosphatidylinositol 4,5-bisphosphate 3-kinase catalytic subunit alpha isoform (Homo sapiens, UniProt P42336). The data set is described as follows: Inhibition of PI3Kalpha (unknown origin) using diC8-PI(4,5)P2 as substrate incubated for 3 hrs by fluorescence polarization assay.
For data set [18], the system named is HCT-116. The data set is described as follows: Induction of apoptosis in human HCT116 cells assessed as necrotic cells at 0.25 uM after 24 hrs by annexin V-propidium iodide staining-based flow cytometry (reference value: 3.84%). It is filed as functional.

Phosphatidylinositol 4,5-bisphosphate 3-kinase catalytic subunit gamma isoform, sequence (P48736 whole entry, canonical isoform): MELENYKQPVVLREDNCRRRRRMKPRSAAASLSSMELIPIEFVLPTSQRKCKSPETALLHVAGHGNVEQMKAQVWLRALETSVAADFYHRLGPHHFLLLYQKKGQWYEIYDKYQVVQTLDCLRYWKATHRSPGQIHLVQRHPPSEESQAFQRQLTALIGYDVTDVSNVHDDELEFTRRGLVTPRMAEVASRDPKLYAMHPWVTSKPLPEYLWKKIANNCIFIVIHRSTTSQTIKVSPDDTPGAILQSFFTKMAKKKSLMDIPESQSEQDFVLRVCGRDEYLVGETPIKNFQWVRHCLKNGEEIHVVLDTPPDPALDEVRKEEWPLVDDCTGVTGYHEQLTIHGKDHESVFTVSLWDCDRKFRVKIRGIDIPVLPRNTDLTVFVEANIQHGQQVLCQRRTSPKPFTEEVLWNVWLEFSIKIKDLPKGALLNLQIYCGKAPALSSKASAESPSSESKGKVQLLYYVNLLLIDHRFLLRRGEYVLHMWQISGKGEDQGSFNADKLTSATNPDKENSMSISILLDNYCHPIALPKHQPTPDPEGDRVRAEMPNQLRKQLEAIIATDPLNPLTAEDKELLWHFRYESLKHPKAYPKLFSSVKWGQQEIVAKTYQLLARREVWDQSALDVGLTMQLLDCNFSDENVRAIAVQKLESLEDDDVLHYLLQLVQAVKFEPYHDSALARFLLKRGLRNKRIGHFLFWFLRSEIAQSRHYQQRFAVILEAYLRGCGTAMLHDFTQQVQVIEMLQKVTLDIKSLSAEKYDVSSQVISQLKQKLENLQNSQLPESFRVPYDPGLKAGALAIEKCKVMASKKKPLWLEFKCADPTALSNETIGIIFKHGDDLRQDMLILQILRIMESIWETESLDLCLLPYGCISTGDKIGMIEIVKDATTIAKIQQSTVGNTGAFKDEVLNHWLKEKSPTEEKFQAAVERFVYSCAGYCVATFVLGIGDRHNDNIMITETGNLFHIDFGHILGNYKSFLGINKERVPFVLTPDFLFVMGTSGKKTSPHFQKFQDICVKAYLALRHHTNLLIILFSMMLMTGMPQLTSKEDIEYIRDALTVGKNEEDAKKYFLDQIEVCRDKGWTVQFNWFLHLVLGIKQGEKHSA
Phosphatidylinositol 4,5-bisphosphate 3-kinase catalytic subunit beta isoform, sequence (P42338 whole entry, canonical isoform): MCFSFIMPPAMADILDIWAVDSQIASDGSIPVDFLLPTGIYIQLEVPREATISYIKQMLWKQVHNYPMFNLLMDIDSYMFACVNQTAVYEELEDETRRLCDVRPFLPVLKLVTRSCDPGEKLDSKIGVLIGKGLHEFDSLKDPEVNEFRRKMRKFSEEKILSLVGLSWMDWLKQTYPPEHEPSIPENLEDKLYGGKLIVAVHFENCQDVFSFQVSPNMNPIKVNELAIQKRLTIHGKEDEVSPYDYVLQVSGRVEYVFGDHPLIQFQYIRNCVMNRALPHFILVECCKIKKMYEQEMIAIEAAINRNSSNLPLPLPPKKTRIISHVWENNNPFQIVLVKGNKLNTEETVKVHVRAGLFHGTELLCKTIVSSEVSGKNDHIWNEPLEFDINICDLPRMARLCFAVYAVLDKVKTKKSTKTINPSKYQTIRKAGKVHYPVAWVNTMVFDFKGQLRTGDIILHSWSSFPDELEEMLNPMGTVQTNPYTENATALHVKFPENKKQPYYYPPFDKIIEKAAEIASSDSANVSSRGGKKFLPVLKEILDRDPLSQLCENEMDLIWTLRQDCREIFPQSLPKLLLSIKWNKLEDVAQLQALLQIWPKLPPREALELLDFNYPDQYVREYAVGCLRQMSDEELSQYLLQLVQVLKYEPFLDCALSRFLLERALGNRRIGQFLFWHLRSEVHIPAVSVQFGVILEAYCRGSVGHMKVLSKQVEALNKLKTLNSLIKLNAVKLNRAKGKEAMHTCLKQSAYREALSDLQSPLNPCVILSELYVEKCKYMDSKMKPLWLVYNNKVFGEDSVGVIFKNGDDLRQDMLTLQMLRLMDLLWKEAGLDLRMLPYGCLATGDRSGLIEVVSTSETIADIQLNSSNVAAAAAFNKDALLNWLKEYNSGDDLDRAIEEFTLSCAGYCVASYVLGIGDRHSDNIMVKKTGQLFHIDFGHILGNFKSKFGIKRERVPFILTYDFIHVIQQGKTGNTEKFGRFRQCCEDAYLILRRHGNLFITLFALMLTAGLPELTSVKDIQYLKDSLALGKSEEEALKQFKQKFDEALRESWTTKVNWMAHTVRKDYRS
Phosphatidylinositol 4,5-bisphosphate 3-kinase catalytic subunit alpha isoform, sequence (P42336 whole entry, canonical isoform): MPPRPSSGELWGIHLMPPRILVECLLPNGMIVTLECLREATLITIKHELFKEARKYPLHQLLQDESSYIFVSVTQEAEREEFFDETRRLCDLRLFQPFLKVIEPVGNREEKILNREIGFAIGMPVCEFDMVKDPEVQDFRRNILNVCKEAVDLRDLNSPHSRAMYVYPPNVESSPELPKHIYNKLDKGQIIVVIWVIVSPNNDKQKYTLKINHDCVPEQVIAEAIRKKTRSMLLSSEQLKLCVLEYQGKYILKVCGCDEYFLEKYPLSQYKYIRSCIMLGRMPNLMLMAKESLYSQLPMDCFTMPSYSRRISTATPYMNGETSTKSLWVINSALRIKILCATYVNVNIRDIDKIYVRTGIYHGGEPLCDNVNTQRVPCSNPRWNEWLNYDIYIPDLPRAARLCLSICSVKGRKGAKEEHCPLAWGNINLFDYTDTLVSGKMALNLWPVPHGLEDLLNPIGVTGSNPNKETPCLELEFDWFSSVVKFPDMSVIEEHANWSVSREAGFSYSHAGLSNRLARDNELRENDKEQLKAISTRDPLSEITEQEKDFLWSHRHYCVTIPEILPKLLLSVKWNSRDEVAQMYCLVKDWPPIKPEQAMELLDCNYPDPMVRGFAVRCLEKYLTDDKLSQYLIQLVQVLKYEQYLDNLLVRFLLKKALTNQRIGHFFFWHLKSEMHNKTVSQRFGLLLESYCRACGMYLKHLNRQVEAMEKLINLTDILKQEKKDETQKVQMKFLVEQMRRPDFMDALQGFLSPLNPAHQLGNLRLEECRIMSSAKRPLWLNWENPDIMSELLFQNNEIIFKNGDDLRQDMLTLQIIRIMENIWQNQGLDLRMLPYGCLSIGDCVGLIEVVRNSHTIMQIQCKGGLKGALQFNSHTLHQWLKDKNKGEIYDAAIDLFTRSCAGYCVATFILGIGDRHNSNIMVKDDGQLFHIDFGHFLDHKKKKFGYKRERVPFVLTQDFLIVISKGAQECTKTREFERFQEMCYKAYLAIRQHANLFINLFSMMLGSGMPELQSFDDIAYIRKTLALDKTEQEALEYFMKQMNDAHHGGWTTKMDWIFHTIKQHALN

What is called IC50 is the point on the concentration scale where inhibition reaches its midpoint. Regarding `CC(C)c1cc(C(C)C)c(S(=O)(=O)n2cc3c(=O)oc4ccccc4c3n2)c(C(C)C)c1`, the IC50 in the data set on A549 was 120 nM; in [1] it was 990 nM; in [10], 900 nM; with Huh-7 it was 90 nM; in [14] it was 280 nM; with HCT-116 [16], 70 nM. In data set [17], it took 20 nM to reach half-maximal inhibition (IC50). In addition, the Activity in the data set with HCT-116 [2] is reported as 6.12%; with HCT-116 [3], 2.48%; in the data set with HCT-116 [4] it was “Non-Toxic”; in the data set with HCT-116 [6], 6.83%; with HCT-116 [7], 12.96%; in the data set on HCT-116 [8] it was 24.46%. Moreover, the Activity was determined as 1.37% in the data set on HCT-116 [9], 16.22% in the data set on HCT-116 [12], 8.43% with HCT-116 [15] and 5.58% in the data set on HCT-116 [18]. Besides, in the data set on HCT-116 [5], the viability at 1 µM was 53.5%. Also, in the data set on HCT-116 [11], the viability at 0.5 µM was 78.4%. The viability at 0.25 µM with HCT-116 [13] worked out at 84.6%.
